Assay results reported in patent US20200190090A1, “OREXIN RECEPTOR ANTAGONISTS” (BENEVOLENTAI BIO LIMITED, priority 2017, published 2020).
Read-outs that look alike come from different tables or passages of the source.

Assays:
[1] = molecular target: T1, human recombinant OX2 (hOX2R) receptor (Homo sapiens, UniProt O43614); test: Scintillation Proximity binding Assay (SPA), [3H]-EMPA displacement, membranes of HEK cell line transformed with hOX2R; conditions: for Ki: 60 min, Cheng-Prusoff from IC50, geometric mean, read-out: hOX2R Binding pKi (60 min) (converted); for Selectivity OX2R/OX1R: selectivity calculated using Ki (Ox2R)/Ki(Ox1R)
T1 construct: expressed in transfected cells; host or cells: HEK cell line (membranes)
T1 sequence (O43614 1-444): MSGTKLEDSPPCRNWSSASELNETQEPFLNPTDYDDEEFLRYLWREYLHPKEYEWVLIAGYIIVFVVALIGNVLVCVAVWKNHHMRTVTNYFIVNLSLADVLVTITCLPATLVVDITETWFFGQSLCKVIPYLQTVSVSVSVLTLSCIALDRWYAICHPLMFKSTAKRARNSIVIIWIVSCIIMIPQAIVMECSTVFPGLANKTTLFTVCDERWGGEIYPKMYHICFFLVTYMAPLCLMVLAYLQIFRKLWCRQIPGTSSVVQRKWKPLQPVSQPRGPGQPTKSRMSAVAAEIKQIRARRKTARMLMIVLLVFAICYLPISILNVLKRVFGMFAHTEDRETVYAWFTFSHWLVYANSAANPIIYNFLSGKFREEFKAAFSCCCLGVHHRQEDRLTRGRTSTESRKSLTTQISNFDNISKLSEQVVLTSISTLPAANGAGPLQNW
Method: (§1) The in vitro binding affinity of 6-[(3aS,4S,6aR)-5-(2-fluoro-4-methoxybenzoyl)-4-methyl-octahydropyrrolo[3,4-c]pyrrol-2-yl]-2,4-dimethylpyridine-3-carbonitrile 3278/6 (the compound of Example 1) for human recombinant OX1 (hOX1R) and OX2 (hOX2R) receptors was determined using a Scintillation Proximity binding Assay (SPA).
(§2) A 96-well plate SPA was developed using antagonist radioligands (OX-radioligands); [3H]-SB674042 (Langmead et al., 2004; Malherbe et al., 2009a) for hOX1R and [3H]-EMPA (Malherbe et al., 2009b) for hOX2R. Cell membranes were prepared from recombinant cell lines; a CHO cell line transformed with hOX1R (GeneBank accession # NM_001525) and a HEK cell line transformed with hOX2R (GeneBank accession # NM_001526.2).
(§3) On the day of the assay, membranes containing hOX1R or hOX2R were captured onto SPA-beads. All test compounds were dissolved in 100% DMSO as 10 mM stock solutions, and prepared as 8-point semi-log dilution in 100% DMSO immediately prior to assay (final assay range 5 uM to 0.064 nM). The compound of Example 1 was co-administered with the appropriate OX-radioligand, and the SPA-membrane preparation added to initiate the assay. During the assay, any compound of Example 1 that bound to the receptors competed with radioligand and reduced the assay signal. Assay plates were read using PerkinElmer Microbeta2 allowing the binding profile of the compound of Example 1 to be assessed at room temperature (19° C.) over several time points (15, 60, 90, 120, 150 minutes, and 18 hours) in hOX1R and hOX2R assay formats.
(§4) End-point data values were determined as Specific Binding (SB) and expressed as a percentage of control (% SB), with 100% being the SB of OX-radioligand in the absence of competing unlabelled ligand, and 0% being the SB of the relevant OX-radioligand in the presence of an excess of the competing cold/unlabelled ligand (Suvorexant; a dual OXR-antagonist [DORA]).
(§5) TB=Total Bound (in presence of 0.5% DMSO); NSB=Non Specific Bound (in the presence of Suvorexant at 1 μM)=0%;
(§6) SB=Specific Bound (TB-NSB)=100%
(§7) Assay data were used to determine half maximal inhibitory concentration (IC50) using a four-parameter logistic model in XLfit and/or GraphPad Prism v5. IC50 were derived from plots of % SB against log 10 of the concentration of the compound of Example 1. The pKi were calculated from the IC50 using the Cheng-Prusoff correction: […]=IC50/(1+([L]/KD)) where [L] is the radioligand concentration in the displacement assay, and KD is the dissociation constant of the radioligand.
(§8) The Selectivity value is derived from the Ki [Ki (OX2R)/Ki(OX1R)].
(§9) was prepared and tested by analogous methods to those described above in Example 1 and Example 2 in respect of the compound of Example 1.

[2] = molecular target: T2, human recombinant OX1 (hOX1R) receptor (Homo sapiens, UniProt O43613); test: Scintillation Proximity binding Assay (SPA), [3H]-SB674042 displacement, membranes of CHO cell line transformed with hOX1R; conditions: for Ki: 60 min, Cheng-Prusoff from IC50, geometric mean, read-out: hOX1R Binding pKi (60 min) (converted); for IC50: SPA, [3H]-SB674042, room temperature (19° C.), GeoMean, read-out: IC50 OX1R
T2 construct: expressed in transfected cells; host or cells: CHO cell line (membranes)
T2 sequence (O43613 1-425): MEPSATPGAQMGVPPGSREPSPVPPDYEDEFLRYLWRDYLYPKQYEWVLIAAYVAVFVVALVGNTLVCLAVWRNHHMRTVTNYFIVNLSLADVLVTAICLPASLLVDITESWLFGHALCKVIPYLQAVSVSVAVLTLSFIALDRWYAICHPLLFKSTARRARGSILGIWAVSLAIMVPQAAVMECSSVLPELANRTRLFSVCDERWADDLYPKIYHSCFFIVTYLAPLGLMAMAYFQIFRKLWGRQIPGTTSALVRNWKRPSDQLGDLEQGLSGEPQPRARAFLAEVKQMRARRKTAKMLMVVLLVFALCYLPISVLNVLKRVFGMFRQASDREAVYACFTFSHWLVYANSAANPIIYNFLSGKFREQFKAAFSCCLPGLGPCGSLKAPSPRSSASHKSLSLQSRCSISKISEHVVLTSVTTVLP
Method: as §1, §2, §3, §4, §5, §6, §7, §8, §9

[3] = SPA, [3H]-EMPA, room temperature (19° C.), GeoMean, read-out: IC50 OX2R
[4] = data at 60 min, read-out: OX2R pIC50 (converted)

SMILES | affinity for hOX2R (in words) [1] | Ki [1] | IC50 [1, 3] | affinity for hOX2R compared with comparative Example A (in words) ([1]; comparison) | IC50 [1, 4] | hOX2R Selectivity (IC50 hOX2R/hOX1R) ([1]; head says IC50 ratio) | selectivity for hOX2R ([1]; over hOX1R) | hOX2R Binding Equilibration Time ([1]; room temperature (19° C.)) | Selectivity OX2R/OX1R [1] | affinity for hOX1R (in words) [2] | Ki [2] | IC50 [2] | OX2R Selectivity (IC50 OX1R/OX2R) ([1]; IC50 ratio)
COc1ccc(C(=O)N2C[C@H]3CN(c4cc(C)c(C#N)c(C)n4)C[C@H]3[C@@H]2C)c(F)c1 [Example 1, 6-[(3aS,4S,6aR)-5-(2-fluoro-4-methoxybenzoyl)-4-methyl-octahydropyrrolo[3,4-c]pyrrol-2-yl]-2,4-dimethylpyridine-3-carbonitrile] | high affinity | 0.724 nM | 1.23 nM | higher affinity | 1.23 nM | 69 | 69 fold | 38 min | 69 | high affinity | 47.9 nM | 97.7 nM | 
COc1ccc(C(=O)N2C[C@@H]3CN(c4cc(C)c(C#N)c(C)n4)C[C@@H]3C2)c(F)c1 [Example A, 6-[(3aS,4S,6aR)-5-(2-fluoro-4-methoxybenzoyl)-octahydropyrrolo[3,4-c]pyrrol-2-yl]-2,4-dimethylpyridine-3-carbonitrile, reference compound] |  | 85.1 nM | 150 nM |  | 151 nM |  |  |  | 43 |  | 3630 nM | 7840 nM | 52
